From patent US4224448A, “2'-(5'-Nitrofuryl) substituted quinolines” (priority 1966, dated 1980)
≈ marks a conversion by molar mass, not a printed value. Read-outs that look alike come from different tables or passages of the source. One block for each compound: values may come before it.

Experiments:
Experiment in all cases: Minimum inhibitory concentration, conventional tube dilution method
Assay type in all cases: cell-based
Candida albicans = conditions: fungus, tube dilution, 37 degrees, 24 hours, between 1 and 6 strains, mg/100 cc, decimal comma, read-out: Minimal Inhibitory Concentration, Cand. Alb.
Source text: (§1) The activity of some of the new nitrofuryl quinoline derivatives of the present invention is exemplified in Table 1 against a gram-positive (Staph. aureus), a gram-negative (Salmonella) bacterium and a fungus (Candida albicans). Table 1 indicates the minimum inhibitory concentration of the compound under reference in mg/100 cc required in order to inhibit the growth between 1 and 6 strains of each type. The measurements have been carried out by the conventional tube dilution method at 37 degrees after 24 hours.

Staph. aureus = conditions: Staphylococcus aureus; gram-positive; tube dilution, 37 degrees, 24 hours; between 1 and 6 strains; mg/100 cc; decimal comma; read-out: Minimal Inhibitory Concentration, Staph. aureus
Source text: as §1

Salmonella = conditions: read-out: Minimal Inhibitory Concentration, Salm.
Source text: as §1

[1] = gram-negative, tube dilution, 37 degrees, 24 hours, between 1 and 6 strains, mg/100 cc, decimal comma

MIC (Candida albicans): 50 µg/mL (≈ 161 µM)
MIC (Staph. aureus): 0.5 µg/mL (≈ 1.61 µM)
SMILES: CCc1ccc2nc(C(C)C)cc(-c3ccc([N+](=O)[O-])o3)c2c1 [CH(CH3)2 H 5NF H C2 H5 H H, 2-isopropyl-4-[2'-(5'-nitrofuryl)]-6-ethyl quinoline]

SMILES: CCc1ccc2nc(CC)cc(-c3ccc([N+](=O)[O-])o3)c2c1 [C2 H5 H NF H C2 H5 H H, 2-ethyl-4-[2'-(5'-nitrofuryl)]-6-ethyl quinoline]
MIC (Candida albicans): > 50 µg/mL
MIC (Salmonella; [1]): > 10 µg/mL

SMILES: O=C(c1cc(-c2ccc([N+](=O)[O-])o2)c2ccccc2n1)N1CCOCC1 [drawing 11 H NF H H H H]
MIC (Candida albicans): 50 µg/mL (≈ 142 µM)
MIC (Salmonella; [1]): 25 to 50 µg/mL (≈ 70.8 to 142 µM)
MIC (Staph. aureus): 0.1 to 0.5 µg/mL (≈ 0.283 to 1.42 µM)

SMILES: COc1ccc(OC)c2c(-c3ccc([N+](=O)[O-])o3)cc(C)nc12 [CH3 H NF OCH3 H H OCH3, 2-methyl-4-[2'-(5'-nitrofuryl)]-5,8-dimethoxy quinoline]
MIC (Candida albicans): > 50 µg/mL
MIC (Salmonella; [1]): > 50 µg/mL
MIC (Staph. aureus): 50 µg/mL (≈ 159 µM)

SMILES: Cc1cc(-c2ccc([N+](=O)[O-])o2)c2ccc(O)cc2[n+]1[O-] [O CH3 H NF H H OH H, 2-Methyl-4-[2'-(5'-nitrofuryl)]-7-hydroxy quinoline N-oxide]
MIC (Candida albicans): 100 µg/mL (≈ 349 µM)
MIC (Salmonella; [1]): 5 to 10 µg/mL (≈ 17.5 to 34.9 µM)

MIC (Candida albicans): > 50 µg/mL
MIC (Staph. aureus): 0.01 to 0.5 µg/mL (≈ 0.0318 to 1.59 µM)
SMILES: CCc1cc(-c2ccc([N+](=O)[O-])o2)c2ccc(OC)cc2[n+]1[O-] [O C2 H5 H NF H H OCH3 H]

MIC (Candida albicans): 50 µg/mL (≈ 159 µM)
MIC (Staph. aureus): 0.5 µg/mL (≈ 1.59 µM)
SMILES: Cc1ccc2c(-c3ccc([N+](=O)[O-])o3)cc(C(=O)O)[n+]([O-])c2c1 [O COOH H NF H H CH3 H, 2-carboxy-4-[2'-(5'-nitrofuryl)]-7-methyl quinoline N-oxide]

SMILES: O=[N+]([O-])c1ccc(-c2ccnc3ccccc23)o1 [H H NF H H H H, 4-[2'-(5'-nitrofuryl)]quinoline]
MIC (Candida albicans): 1 µg/mL (≈ 4.16 µM)
MIC (Salmonella; [1]): 5 µg/mL (≈ 20.8 µM)
MIC (Staph. aureus): 0.1 to 0.5 µg/mL (≈ 0.416 to 2.08 µM)

SMILES: O=[N+]([O-])c1ccc(-c2cc(C=NO)[n+]([O-])c3ccccc23)o1 [O CHNOH H NF H H H H]
MIC (Candida albicans): 0.5 µg/mL (≈ 1.67 µM)
MIC (Salmonella; [1]): 1 to 5 µg/mL (≈ 3.34 to 16.7 µM)

SMILES: CCc1ccc2c(c1)c(-c1ccc([N+](=O)[O-])o1)cc(C)[n+]2[O-] [O CH3 H NF H C2 H5 H H]
MIC (Candida albicans): 2 to 5 µg/mL (≈ 6.7 to 16.8 µM)
MIC (Salmonella; [1]): 25 µg/mL (≈ 83.8 µM)
MIC (Staph. aureus): 0.5 µg/mL (≈ 1.68 µM)

SMILES: CCc1cc(-c2ccc([N+](=O)[O-])o2)c2cc(C)ccc2n1 [C2 H5 H NF H CH3 H H, 2-ethyl-4-[2'-(5'-nitrofuryl)]-6-methyl quinoline]
MIC (Candida albicans): < 5 µg/mL
MIC (Salmonella; 24 h): > 10 µg/mL

SMILES: CC(=O)OCc1cc(-c2ccc([N+](=O)[O-])o2)c2ccccc2n1 [CH2 OCOCH3 H NF H H H H, 2-acetoxymethyl-4-[2'-(5'-nitrofuryl)]quinoline]
MIC (Candida albicans): 5 µg/mL (≈ 16 µM)
MIC (Salmonella; [1]): > 50 µg/mL

SMILES: NC(=O)NN=Cc1cc(-c2ccc([N+](=O)[O-])o2)c2ccccc2n1 [drawing 8 H NF H H H H]
MIC (Candida albicans): 25 to 50 µg/mL (≈ 76.9 to 154 µM)
MIC (Salmonella; [1]): 5 µg/mL (≈ 15.4 µM)

SMILES: COc1cc2nc(C)cc(-c3ccc([N+](=O)[O-])o3)c2cc1N [CH3 H NF H NH2 OCH3 H, 2-methyl-4-[2'-(5'-nitrofuryl)]-6-amino-7-methoxy-quinoline]
MIC (Candida albicans): 5 µg/mL (≈ 16.7 µM)
MIC (Salmonella; [1]): 1 to 5 µg/mL (≈ 3.34 to 16.7 µM)

SMILES: CC(=O)Oc1ccc2c(-c3ccc([N+](=O)[O-])o3)cc(C)nc2c1 [CH3 H NF H H OCOCH3 H]
MIC (Candida albicans): 10 µg/mL (≈ 32 µM)
MIC (Salmonella; [1]): 2 µg/mL (≈ 6.4 µM)

SMILES: O=[N+]([O-])c1ccc(-c2cc(C=NNCCO)nc3ccccc23)o1 [drawing 9 H NF H H H H]
MIC (Candida albicans): 25 µg/mL (≈ 76.6 µM)
MIC (Salmonella; [1]): 5 µg/mL (≈ 15.3 µM)

SMILES: CCc1cc(-c2ccc([N+](=O)[O-])o2)c2ccc(O)cc2[n+]1[O-] [O C2 H5 H NF H H OH H]
MIC (Candida albicans): 25 µg/mL (≈ 83.3 µM)
MIC (Salmonella; [1]): 5 µg/mL (≈ 16.7 µM)

SMILES: CC(=O)c1cc(-c2ccc([N+](=O)[O-])o2)c2ccccc2n1 [COCH3 H NF H H H H, 4-[2'-(5'-nitrofuryl)]quinoline-2-methyl ketone]
MIC (Candida albicans): > 50 µg/mL
MIC (Salmonella; [1]): > 50 µg/mL

SMILES: O=[N+]([O-])c1ccc(-c2cc(C=NO)nc3ccccc23)o1 [CHNOH H NF H H H H, 4-[2'-(5'-nitrofuryl)]quinoline-2-carboxaldehyde oxime]
MIC (Candida albicans): 10 µg/mL (≈ 35.3 µM)
MIC (Salmonella; [1]): 5 µg/mL (≈ 17.7 µM)

SMILES: CNN=Cc1cc(-c2ccc([N+](=O)[O-])o2)c2ccccc2n1 [drawing 7 H NF H H H H]
MIC (Candida albicans): 10 to 25 µg/mL (≈ 33.8 to 84.4 µM)
MIC (Salmonella; [1]): 1 to 5 µg/mL (≈ 3.38 to 16.9 µM)

MIC (Candida albicans): < 5 µg/mL
MIC (Staph. aureus): 0.1 µg/mL (≈ 0.335 µM)
SMILES: CCc1cc(-c2ccc([N+](=O)[O-])o2)c2cc(C)ccc2[n+]1[O-] [O C2 H5 H NF H CH3 H H]

SMILES: COc1cc2c(-c3ccc([N+](=O)[O-])o3)cc(C)[n+]([O-])c2cc1OC [O CH3 H NF H OCH3 OCH3 H]
MIC (Candida albicans): > 50 µg/mL
MIC (Salmonella; [1]): > 50 µg/mL

SMILES: CC(=O)OCc1cc(-c2ccc([N+](=O)[O-])o2)c2ccc(OC(C)=O)cc2n1 [CH2 OCOCH3 H NF H H OCOCH3 H, 2-acetoxymethyl-4-[2'-(5'-nitrofuryl)]-7-acetoxy quinoline]
MIC (Candida albicans): 50 to 100 µg/mL (≈ 135 to 270 µM)
MIC (Salmonella; [1]): 10 to 25 µg/mL (≈ 27 to 67.5 µM)

MIC (Candida albicans): 5 µg/mL (≈ 14.2 µM)
MIC (Staph. aureus): 0.1 to 0.5 µg/mL (≈ 0.284 to 1.42 µM)
SMILES: O=C1OCCN1N=Cc1cc(-c2ccc([N+](=O)[O-])o2)c2ccccc2n1 [drawing 10 H NF H H H H]

SMILES: CC(=O)Oc1ccc2c(-c3ccc([N+](=O)[O-])o3)cc(C)[n+]([O-])c2c1 [O CH3 H NF H H OCOCH3 H]
MIC (Candida albicans): 50 µg/mL (≈ 152 µM)
MIC (Salmonella; [1]): 5 µg/mL (≈ 15.2 µM)

SMILES: COc1ccc2c(-c3ccc([N+](=O)[O-])o3)cc(C)nc2c1 [CH3 H NF H H OCH3 H, 2-methyl-4-[2'-(5'-nitrofuryl)]-7-methoxy quinoline]
MIC (Candida albicans): 5 µg/mL (≈ 17.6 µM)
MIC (Salmonella; [1]): 10 µg/mL (≈ 35.2 µM)

MIC (Candida albicans): < 5 µg/mL
MIC (Staph. aureus): 0.5 µg/mL (≈ 1.95 µM)
SMILES: O=[N+]([O-])c1ccc(-c2ccc3ccccc3[n+]2[O-])o1 [O NF H H H H H H]

SMILES: Cc1ccc2c(-c3ccc([N+](=O)[O-])o3)cc(C)[n+]([O-])c2c1 [O CH3 H NF H H CH3 H]
MIC (Candida albicans): 5 µg/mL (≈ 17.6 µM)
MIC (Salmonella; [1]): > 50 µg/mL

SMILES: CCOC(=O)c1cc(-c2ccc([N+](=O)[O-])o2)c2ccccc2n1 [COOC2 H5 H NF H H H H, 2-carbethoxy-4-[2'-(5'-nitrofuryl)]quinoline]
MIC (Candida albicans): > 50 µg/mL
MIC (Salmonella; [1]): > 50 µg/mL

SMILES: COc1cc2nc(C)cc(-c3ccc([N+](=O)[O-])o3)c2cc1NC(C)=O [CH3 H NF H NHCOCH3 OCH3 H, 2-methyl-4-[2'-(5'-nitrofuryl)]-6-acetylamino-7-methoxy-quinoline]
MIC (Candida albicans): 50 µg/mL (≈ 146 µM)
MIC (Salmonella; [1]): > 50 µg/mL

SMILES: COc1cc2c(cc1N)c(-c1ccc([N+](=O)[O-])o1)cc(C)[n+]2[O-] [O CH3 H NF H NH2 OCH3 H]
MIC (Candida albicans): > 50 µg/mL
MIC (Salmonella; [1]): 50 µg/mL (≈ 159 µM)

SMILES: CCc1cccc2c(-c3ccc([N+](=O)[O-])o3)cc(C)nc12 [CH3 H NF H H H C2 H5]
MIC (Candida albicans): 100 µg/mL (≈ 354 µM)
MIC (Salmonella; [1]): > 50 µg/mL

SMILES: COc1cc2c(cc1NC(C)=O)c(-c1ccc([N+](=O)[O-])o1)cc(C)[n+]2[O-] [O CH3 H NF H NHCOCH3 OCH3 H]
MIC (Candida albicans): 50 µg/mL (≈ 140 µM)
MIC (Salmonella; [1]): 10 to 25 µg/mL (≈ 28 to 70 µM)

SMILES: Cc1cc(-c2ccc([N+](=O)[O-])o2)c2ccc(N)c(C)c2n1 [CH3 H NF H H NH2 CH3]
MIC (Candida albicans): 5 µg/mL (≈ 17.6 µM)
MIC (Salmonella; 24 h): 1 to 5 µg/mL (≈ 3.53 to 17.6 µM)

MIC (Candida albicans): > 10 µg/mL
MIC (Staph. aureus): 0.5 to 1 µg/mL (≈ 1.46 to 2.92 µM)
SMILES: CCCCOc1ccc2c(-c3ccc([N+](=O)[O-])o3)cc(C)[n+]([O-])c2c1 [O CH3 H NF H H OC4 H9 H]

SMILES: CCOc1ccc2c(-c3ccc([N+](=O)[O-])o3)cc(C=NO)nc2c1 [CHNOH H NF H H OC2 H5 H]
MIC (Candida albicans): 50 µg/mL (≈ 153 µM)
MIC (Salmonella; [1]): > 50 µg/mL

SMILES: CCCCOc1ccc2c(-c3ccc([N+](=O)[O-])o3)cc(C)nc2c1 [CH3 H 5NF H H OC4 H9 H, 2-methyl-4-[2'-(5'-nitrofuryl)]-7-n-butoxy quinoline]
MIC (Candida albicans): > 50 µg/mL
MIC (Staph. aureus): 0.5 µg/mL (≈ 1.53 µM)
